# Measurements taken from publication PMC9894841, “Characterisation of a cyclic peptide that binds to the RAS binding domain of phosphoinositide 3-kinase p110α” (Scientific Reports, 2023).
# Where “and” joins values, the source holds several entries; their conditions need not be identical. Equal entries are not always repeated. Entries after “also recorded” stand apart in the source; their conditions may differ. Residues, ends and D or L forms follow the SMILES beside them.
# How the values were obtained:
# Sm-KRAS/Lg-RBDα = target: T1, Sm-KRAS/Lg-RBDα (Homo sapiens, UniProt P42336); assay: NanoBiT Biochemical Assay (NBBA) Sm-KRAS/Lg-RBDα; details: HEK293 cell lysate, 50 µM
# T1 construct: Lg-BiT fused to the RBD of either p110α, p110 δ or p110γ; expressed in transfected cells; host or cells: HEK293 (lysate)
# Excerpt: We next sought to determine whether cyclo-CRVLIR binds specifically to p110α or if it can also interact with other PI3K isoforms. We chose the NBBA (NanoBiT Biochemical Assay), which was previously developed by our laboratory, as a tool to detect if cyclo-CRVLIR could inhibit the interaction of RAS with p110α, p110 δ and p110γ[36]. The NBBA is biochemical adaptation of the NanoBiT cellular assay that is based on the split luciferase NanoLuc system that uses separate Large-BiT (Lg-BiT) and Small-BiT (Sm-BiT) components, each fused to a protein of interest. When the Lg-BiT and Sm-BiT proteins are brought into close proximity, upon the binding of their cognate target proteins, they produce a luminescence signal. […] Cells were harvested at 48 h post-transfection and the cell lysates tested for the interaction of Sm-KRAS with each of the PI3K binding isoforms in the presence or absence of 50 µM cyclo-CRVLIR.
# The production of the Sm-KRAS, and the Lg-RBD- of p110α, β, δ, γ constructs and lysate are described in detail in a previous report. The cell lysate was treated with 50 µM cyclo-CRVLIR for 20–30 min before detection by the addition of the Nano-Glo.
# p110α/KRAS interaction = p110α/KRAS interaction (Homo sapiens, UniProt P42336); assay: MST competition assay of the p110α/KRAS interaction; assay type: binding; details: 20 µM peptide
# Procedure: We next wanted to test whether the cyclo-CRVLIR peptide is capable of inhibiting the p110α/KRAS interaction.
# Measurements were performed using a NanoTemper Monolith™ NT.115 instrument (NanoTemper Technologies GmbH, München, Germany). Protein samples were labelled with the amine reactive dye NT-647 (or NT-495) using the Monolith™ NT.115 Protein Labeling Kit RED-NHS (or Monolith™ NT.115 Protein Labeling Kit BLUE-NHS). Labelling levels (generally in the range 0.3–0.4 dye molecules per protein molecule) were determined using calculated extinction coefficients for the protein and ε647 = 250,000 M^−1 cm^−1 (or ε495 = 70,000 M^−1 cm^−1) for the dye concentration. In a typical experiment […] aliquots of a 100 nM stock solution of labelled protein were mixed with […] aliquots of a serial dilution of binding partner. These solutions were then loaded into standard treated capillaries and MST measurements were performed at 25 °C using 20–40% LED power and 40–60% IR-Laser power. The laser Laser-On time was 30 s and Laser-Off time 5 s. All measurements were performed at least five times.
# p110α = p110α (Homo sapiens, UniProt P42336); assay: NMR STD and Water-LOGSY interaction with p110α; assay type: binding; details: 1 mM peptide, 8 µM p110α
# Procedure: Here we chose Nuclear Magnetic Resonance (NMR) as an orthogonal technique to detect the cyclo-CRVLIR binding to p110α. We applied two commonly used NMR-based techniques that can detect protein/ compound interaction: STD (Saturation transfer difference), and Water-LOGSY (water-ligand observed through gradient spectroscopy)[34],[35].
# NMR experiments were performed at 20 °C using a Bruker Avance IIIHD spectrometer operating at 700 MHz. STD experiments employed off-resonance saturation (2 s) at − 40 ppm, and on-resonance at − 1 ppm. Waterlogsy experiments used a mixing time of 1.5 s.
# H1373 cells = assay: Western blot of phospho-AKT / phospho-ERK in H1373 cells; assay type: cell-based, human; details: 4 h
# [1] = Solubility of the peptides (in words); assay type: physicochemical
# p110α (p110α/p85α) = p110α (p110α/p85α) (Homo sapiens, UniProt P42336); assay: Microscale thermophoresis (MST) binding to labelled p110α/p85α
# H1792 cells = assay: Western blot of phospho-AKT / phospho-ERK in H1792 cells; assay type: cell-based, human; details: 4 h
# Procedure: We treated the human lung cancer cell line H1792, growing at steady-state in Roswell Park Memorial Institute (RPMI) 1640 media with 10% Foetal Calf Serum (FCS), with the seven cyclic peptides at three different concentrations (2, 10 and 50 µM) for 4 h. After treatment we measured the effect of the peptides on the phosphorylation levels of AKT (pAKT-Ser473), a key downstream effector of p110α activity. […] In contrast, the phosphorylation levels of ERK (p-ERK), which is a downstream effector of the RAS/RAF/MEK/ERK pathway and is independent of p110α activity, were not affected.
# The next day, 1 ml of medium was removed and the cells were treated with different peptide concentrations for 4 h. All peptides were dissolved in 25 mM Tris pH8, 100 mM NaCl and 1 mM TCEP. Cells were then harvested and lysed for SDS-PAGE and western blot analysis. Anti-calnexin antibody was obtained from Abcam. Antibodies directed against phospho-T202/Y204-ERK, ERK, phospho-S473-AKT and AKT were obtained from Cell Signaling. After western blotting, calnexin, AKT and phospho-AKT signals were quantified using ImageJ and statistical tests were done using Prism software.
# Sequence of p110α/KRAS interaction (P42336 whole entry, species assumed): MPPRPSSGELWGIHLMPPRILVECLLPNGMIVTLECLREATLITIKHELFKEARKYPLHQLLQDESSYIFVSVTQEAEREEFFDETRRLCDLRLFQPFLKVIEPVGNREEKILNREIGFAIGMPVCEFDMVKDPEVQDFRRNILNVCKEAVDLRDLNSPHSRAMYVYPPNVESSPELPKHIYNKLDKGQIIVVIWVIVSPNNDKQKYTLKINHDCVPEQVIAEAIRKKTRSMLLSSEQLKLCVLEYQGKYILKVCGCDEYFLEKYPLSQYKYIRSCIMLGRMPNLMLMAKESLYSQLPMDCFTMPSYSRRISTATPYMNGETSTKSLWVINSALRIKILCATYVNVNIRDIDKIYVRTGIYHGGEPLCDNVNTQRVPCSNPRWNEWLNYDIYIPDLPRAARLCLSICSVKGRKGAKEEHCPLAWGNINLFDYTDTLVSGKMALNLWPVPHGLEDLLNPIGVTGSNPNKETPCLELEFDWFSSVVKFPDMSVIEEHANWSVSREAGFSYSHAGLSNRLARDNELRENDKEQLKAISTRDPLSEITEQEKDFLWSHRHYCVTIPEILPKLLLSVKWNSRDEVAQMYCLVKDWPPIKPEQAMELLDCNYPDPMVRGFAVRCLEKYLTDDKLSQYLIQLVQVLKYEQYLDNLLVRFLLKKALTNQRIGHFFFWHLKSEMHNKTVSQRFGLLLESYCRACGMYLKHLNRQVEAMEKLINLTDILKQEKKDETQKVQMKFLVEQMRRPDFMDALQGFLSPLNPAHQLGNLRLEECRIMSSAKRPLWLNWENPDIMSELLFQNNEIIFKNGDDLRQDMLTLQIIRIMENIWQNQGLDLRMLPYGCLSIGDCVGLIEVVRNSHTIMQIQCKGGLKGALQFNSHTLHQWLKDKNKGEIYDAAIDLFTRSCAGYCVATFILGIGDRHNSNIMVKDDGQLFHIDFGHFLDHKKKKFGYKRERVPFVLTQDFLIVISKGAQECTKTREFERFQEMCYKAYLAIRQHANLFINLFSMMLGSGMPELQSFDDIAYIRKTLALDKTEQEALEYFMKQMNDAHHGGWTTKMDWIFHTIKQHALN
# Sequence of p110α/KRAS interaction (P27986 whole entry partner, species assumed): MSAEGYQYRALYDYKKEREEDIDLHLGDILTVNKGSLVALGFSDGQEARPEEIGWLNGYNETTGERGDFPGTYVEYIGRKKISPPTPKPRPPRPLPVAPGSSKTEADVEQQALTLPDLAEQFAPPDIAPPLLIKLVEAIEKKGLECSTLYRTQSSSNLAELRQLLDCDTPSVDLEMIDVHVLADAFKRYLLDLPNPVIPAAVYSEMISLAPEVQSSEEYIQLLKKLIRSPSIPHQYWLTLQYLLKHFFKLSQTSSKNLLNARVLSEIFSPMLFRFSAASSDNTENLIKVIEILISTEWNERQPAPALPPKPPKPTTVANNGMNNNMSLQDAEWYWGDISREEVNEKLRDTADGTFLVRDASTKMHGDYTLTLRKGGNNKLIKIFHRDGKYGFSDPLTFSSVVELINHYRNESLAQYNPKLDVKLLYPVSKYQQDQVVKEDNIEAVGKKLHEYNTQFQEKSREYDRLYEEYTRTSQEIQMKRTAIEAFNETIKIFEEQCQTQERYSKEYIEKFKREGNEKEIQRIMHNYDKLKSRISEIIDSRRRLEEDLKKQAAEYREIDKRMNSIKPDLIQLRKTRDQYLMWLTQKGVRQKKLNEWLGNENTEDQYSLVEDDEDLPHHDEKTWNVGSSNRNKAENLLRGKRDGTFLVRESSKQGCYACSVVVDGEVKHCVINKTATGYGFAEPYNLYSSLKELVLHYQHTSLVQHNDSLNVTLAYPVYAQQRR
# Sequence of p110α (p110α/p85α) (P42336 whole entry, species assumed): as the sequence (P42336 whole entry, species assumed) above
# Sequence of p110α (p110α/p85α) (P27986 whole entry partner, species assumed): as the sequence (P27986 whole entry partner, species assumed) above
# T1 sequence (P42336 187-289 limits assumed): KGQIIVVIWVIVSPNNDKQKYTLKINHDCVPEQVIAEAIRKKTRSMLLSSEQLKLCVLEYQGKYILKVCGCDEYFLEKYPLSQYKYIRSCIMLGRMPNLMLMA
# Sequence of p110α (P42336 whole entry, species assumed): as the sequence (P42336 whole entry, species assumed) above
# Sequence of p110α (P27986 whole entry partner, species assumed): as the sequence (P27986 whole entry partner, species assumed) above
structure (smiles),measurement,setting,value
"CC[C@H](C)[C@@H]1NC(=O)[C@H](CC(C)C)NC(=O)[C@H](C(C)C)NC(=O)[C@H](CCCNC(=N)N)NC(=O)[C@H](CS)NC(=O)[C@H](CCCNC(=N)N)NC1=O [cyclo-CRVLIR, Cyclo-CRVLIR] (cyclo(CRVLIR))",inhibition of the Sm-KRAS/Lg-RBDα interaction signal,Sm-KRAS/Lg-RBDα,reduction in the interaction signal; also recorded: able to inhibit
same,p110α/KRAS interaction in the presence of the peptide,p110α/KRAS interaction,blocked; also recorded: did not detect the p110α/KRAS interaction; also recorded: inhibits the p110α/RAS interaction
same,interaction with p110α by STD and Water-LOGSY NMR,p110α,clear signal of interaction
same,effect on phospho-AKT (pAKT-S473) levels,"H1373 cells; H1373 cells, 4, 20 and 100 µM",inhibition of pAKT; also recorded: reduces the levels of pAKT
same,effect on phosphorylation levels of ERK (p-ERK),H1373 cells; H1373 cells,not affected
same,solubility in words,[1],more soluble than the parent peptide cyclo-CRVLAA; also recorded: significantly more soluble than our original cyclo-CRVLAA peptide
same,increase in affinity for p110α over cyclo-CRVLAA,p110α (p110α/p85α); MST,~120 fold
same,Kd,"p110α (p110α/p85α); labelled protein 100 nM, 25 °C",2900 nM and 3000 nM
same,effect on phosphorylation levels of ERK (p-ERK),H1792 cells,not affected
same,effect on phospho-AKT (pAKT-Ser473) levels,"H1792 cells; RPMI 1640 10% FCS, 2, 10 and 50 µM (also 4, 20 and 100 µM)",dose dependent effect; also recorded: reduces the levels of pAKT
